Columns and labels:
Tetranychus urticae = assay: In vivo protective test on Tetranychus urticae (TETRUR); details: French bean infested with two spotted spidermite, sprayed; concentration not given
Method: In vivo Protective Test on Tetranychus urticae (TETRUR)
(§1) To produce a suitable preparation of active compound, 1 part by weight of active compound is mixed with the stated amount of solvent and emulsifier, and the concentrate is diluted with emulsifier-containing water to the desired concentration.
French bean (Phaseolus vulgaris) which are heavily infested with all stages of the two spotted spidermite (Tetranychus urticae), are sprayed with a preparation of the active ingredient at the desired concentration.
After the specified period of time, mortality in % is determined. 100% means that all spider mites have been killed and 0% means that none of the spider mites have been killed.

[1] = logP by HPLC on reversed-phase column (C 18), EEC Directive 79/831 Annex V.A8; format: physicochemical; details: for chromatographic logP: reversed-phase C18 HPLC column, value in preparation example text, read-out: log P (pH 2.3)
Method: Temperature: 40° C.; Mobile phases: 0.1% aqueous formic acid and acetonitrile; linear gradient from 10% acetonitrile to 90% acetonitrile.

Phaedon cochleariae = assay: In vivo protective test on Phaedon cochleariae (PHAECO); details: Chinese cabbage leaf-disks sprayed, infested with mustard beetle larvae; concentration not given
Method: In vivo Protective Test on Phaedon cochleariae (PHAECO)
as §1
Chinese cabbage (Brassica pekinesis) leaf-disks are sprayed with a preparation of the active ingredient of the desired concentration. Once dry, the leaf disks are infested with mustard beetle larvae (Phaedon cochleariae).
After the specified period of time, mortality in % is determined. 100% means that all beetle larvae have been killed and 0% means that none of the beetle larvae have been killed.

Myzus persicae = assay: In vivo protective test on Myzus persicae (MYZUPE); details: Chinese cabbage leaf-disks infected with green peach aphid, sprayed; concentration not given
Method: In vivo Protective Test on Myzus persicae (MYZUPE)
as §1
Chinese cabbage (Brassica pekinesis) leaf-disks infected with all instars of the green peach aphid (Myzus persicae), are sprayed with a preparation of the active ingredient at the desired concentration.
After the specified period of time, mortality in % is determined. 100% means that all aphids have been killed; 0% means that none of the aphids have been killed.

[2] = HPLC, 0.1% aqueous formic acid and acetonitrile, 40° C., pH 2.3
[3] = measured at pH = 4 (footnote a)

| Structure (SMILES) | logPa [1, 2] | also measured |
| --- | --- | --- |
| CCN(C)C=Nc1cc(C)c(Oc2ccnc(N(C)C)n2)cc1C [Compound 37] | 0.66 | activity (mortality) (Tetranychus urticae): good activity |
| CCCN(C)C=Nc1cc(C)c(Oc2ccnc(Oc3cccc(Cl)c3C)n2)cc1C [Compound 18] | 2.21 | activity (mortality) (Phaedon cochleariae): good activity |
| CCN(C)C=Nc1cc(C)c(Oc2ccnc(Oc3cccc(Cl)c3)n2)cc1C [Compound 65] | 2.04 | activity (mortality) (Myzus persicae): good activity |
| CCCN(C)C=Nc1cc(C)c(Oc2ccnc(Oc3ccccc3)n2)cc1C [Compound 36] | 1.87 | activity (mortality) (Myzus persicae): good activity |
| CCN(C)C=Nc1cc(C)c(Oc2ncnc(Oc3cccc(Cl)c3C)c2C)cc1C [Compound 8] | 2.6 |  |
| Cc1cc(Oc2cc(C)c(N)cc2C)nc(Cl)n1 [4-[(2-chloro-6-methylpyrimidin-4-yl)oxy]-2,5-dimethylaniline] |  | chromatographic logP ([1]; pH 2.3): 1.62 |
| CCN(C)C=Nc1cc(C)c(Oc2cc(C(F)(F)F)ncn2)cc1C [Compound 7] |  | logPa [1, 3]: 1.85^a |
| CCN(C)C=Nc1cc(C)c(Oc2nccc(Oc3ccccc3)n2)cc1C [Compound 102] | 1.82 |  |
| CCN(C)c1cc(Oc2cc(C)c(N=CN(C)C(C)C)cc2C)ncn1 [Compound 45] | 1.56 |  |
| CCN(C)C=Nc1cc(C)c(Oc2ccnc(N3CCOCC3)n2)cc1C [Compound 19] | 1.3 |  |
| CCN(C)C=Nc1cc(C)c(Oc2cc(Oc3cccc(C(F)(F)F)c3)ncn2)cc1C [Compound 5] |  | logPa [1, 3]: 4.35^a |
| CCc1ncnc(Oc2cc(C)c(N=CN3CCCCC3)cc2C)c1Cl [Compound 85] | 1.98 |  |
| CCN(C)C=Nc1cc(C)c(Oc2cc(Oc3cccc(C(C)(C)C)c3)ncn2)cc1C [Compound 9] |  | logPa [1, 3]: 4.9^a |
| COc1cc(Oc2cc(C)c(N=CN(C)C(C)C)cc2C)ncn1 [Compound 48] | 1.49 |  |
| Cc1cc(Oc2ccnc(Oc3ccccc3)n2)c(C)cc1N=CN(C)C [Compound 63] | 1.65 |  |
| Cc1cc(Oc2cc(C)c(N=CN(C)C(C)C)cc2C)nc(Cl)n1 [Compound 41] | 1.57 | activity (mortality) (Myzus persicae): good activity |
| Cc1cc(Oc2ccnc(N(C)c3ccccc3)n2)c(C)cc1N [[4-(4-Amino-2,5-dimethyl-phenoxy)-pyrimidin-2-yl]-methyl-phenyl-amine] |  | chromatographic logP ([1]; pH 2.3): 1.72 |
| Cc1cccc(Oc2nccc(Oc3cc(C)c(N=CN4CCCCC4)cc3C)n2)c1 [Compound 80] | 2.16 |  |
| Cc1cc(Oc2ccnc(Oc3ccccc3)n2)c(C)cc1N=CN1CCCCC1 [Compound 76] | 2.02 |  |
| Cc1cc(Oc2ccnc(N(C)c3ccccc3)n2)c(C)cc1N=CN1CCCCC1 [Compound 61] | 1.84 |  |
| CCN(C)C=Nc1cc(C)c(Oc2ccnc(Oc3ccc(C(C)(C)C)cc3)n2)cc1C [Compound 77] | 2.65 |  |
| Cc1cc(Oc2ccnc(Nc3cccc(Cl)c3)n2)c(C)cc1N=CN(C)C(C)C [Compound 29] | 2.04 |  |
| Cc1cc(Oc2ccnc(Oc3ccccc3)n2)c(C)cc1N=CN(C)C(C)C [Compound 66] | 1.81 |  |
| CCc1ncnc(Oc2cc(C)c(N=CN3CCCC3)cc2C)c1Cl [Compound 86] | 1.87 |  |
| CCN(C)C=Nc1cc(C)c(Oc2ccnc(Oc3ccc(F)c(F)c3)n2)cc1C [Compound 70] | 1.93 |  |

Continued, in another order:

| logPa [1, 2] | Structure (SMILES) | also measured |
| --- | --- | --- |
| 1.3 | CCN(C)C=Nc1cc(C)c(Oc2ccnc(Cl)n2)cc1C [Compound 23] |  |
| 1.82 | CCN(C)C=Nc1cc(C)c(Oc2ncc(Cl)c(N(C)CC)n2)cc1C [Compound 89, N′-[4-({5-chloro-4-[ethyl(methyl)amino]pyrimidin-2-yl}oxy)-2,5-dimethyl-phenyl]-N-ethyl-N-methylimidoformamide] | chromatographic logP ([1]; pH 2.3): 1.82 |
| 1.44 | CCCN(C)C=Nc1cc(C)c(Oc2ccnc(Cl)n2)cc1C [Compound 24] |  |
| 1.47 | CCCN(C)C=Nc1cc(C)c(Oc2cc(OC)ncn2)cc1C [Compound 40] |  |
| 0.82 | CCN(C)C=Nc1cc(C)c(Oc2ccnc(N(C)CC)n2)cc1C [Compound 10] |  |
| 1.4 | Cc1cc(Oc2ccnc(Cl)n2)c(C)cc1N=CN(C)C(C)C [Compound 25] |  |
| 1.62 | CCCN(C)C=Nc1cc(C)c(Oc2cc(C)nc(Cl)n2)cc1C [Compound 32] |  |
| 2.61 | CCN(C)C=Nc1cc(C)c(Oc2cc(Cl)nc(C(C)(C)C)n2)cc1C [Compound 59] |  |
| 1.25 | CCCN(C)c1nccc(Oc2cc(C)c(N=CN(C)CC)cc2C)n1 [Compound 13] |  |
| 2.13 | CCN(C)C=Nc1cc(C)c(Oc2nccc(Oc3cccc(Cl)c3)n2)cc1C [Compound 103] |  |
| 1.6 | CCCN(C)C=Nc1cc(C)c(Oc2cc(N(C)CC)ncn2)cc1C [Compound 42] |  |
| 1.4 | COc1nccc(Oc2cc(C)c(N=CN(C)C(C)C)cc2C)n1 [Compound 26] |  |
| 1.67 | CCN(C)C=Nc1cc(C)c(Oc2nc(Cl)ncc2Cl)cc1C [Compound 64] |  |
| 2.08 | CCN(C)C=Nc1cc(C)c(Oc2ccnc(Oc3cccc(Cl)c3C)n2)cc1C [Compound 2, N′-{4-[2-(3-chloro-2-methyl-phenoxy)-pyrimidin-4-yloxy]-2,5-dimethyl-phenyl}-N-ethyl-N-methyl-formamidine] | chromatographic logP ([1]; pH 2.3): 2.08 |
| 1.7 | CCCN(C)C=Nc1cc(C)c(Oc2nccc(C(F)(F)F)n2)cc1C [Compound 98] |  |
| 1.74 | CCCN(C)c1cc(Oc2cc(C)c(N=CN(C)CC)cc2C)ncn1 [Compound 49] |  |
| 2.06 | CCCN(C)C=Nc1cc(C)c(Oc2ccnc(Nc3cccc(Cl)c3)n2)cc1C [Compound 52] |  |
| 1.54 | Cc1cc(Oc2cc(Cl)ncn2)c(C)cc1N=CN(C)C(C)C [Compound 17] |  |

Source: US7727986B2, “Pesticide pyrimidinyloxy substituted phenylamidine derivatives” (Bayer CropScience AG, priority 2005, dated 2010)
